Laboratory results published in ChEMBL document CHEMBL4007421, “Discovery and Preclinical Characterization of 3-((4-(4-Chlorophenyl)-7-fluoroquinoline-3-yl)sulfonyl)benzonitrile, a Novel Non-acetylenic Metabotropic Glutamate Receptor 5 (mGluR5) Negative Allosteric Modulator for Psychiatric Indications” (J Med Chem, 2017).

Test system: Liver
Assay: Intrinsic clearance in rat liver microsomes at 2.5 uM assessed per gram of liver
Assay type: ADME, microsome

| CLint | SMILES |
| --- | --- |
| 18 mL/min/g | Cc1ccc(S(=O)(=O)c2cnc3ccccc3c2N2CCOCC2)cc1C |
| 17.5 mL/min/g | Cc1ccc(S(=O)(=O)c2cnc3ccccc3c2-c2ccc(Cl)cc2)cc1 |

Test system: Liver
Assay: Intrinsic clearance in human liver microsomes at 2.5 uM assessed per gram of liver
Assay type: ADME, microsome

| CLint | SMILES |
| --- | --- |
| 0.22 mL/min/g | O=S(=O)(c1cc(F)cc(F)c1)c1cnc2cc(F)ccc2c1-c1cccc(Cl)c1 |
| 1.2 mL/min/g | O=S(=O)(c1cc(Cl)cc(Cl)c1)c1cnc2c(F)cccc2c1-c1cccc(Cl)c1 |
| 0.11 mL/min/g | O=S(=O)(c1cccc(F)c1)c1cnc2cc(F)ccc2c1-c1ccc(F)cc1 |
| 1.34 mL/min/g | O=S(=O)(c1ccc(F)cc1)c1cnc2cc(F)ccc2c1-c1ccc(F)cc1 |
| 0.25 mL/min/g | O=S(=O)(c1ccc(F)c(Cl)c1)c1cnc2cc(F)ccc2c1-c1cccc(F)c1 |
| 3.92 mL/min/g | Cc1ccc(S(=O)(=O)c2cnc3c(F)cccc3c2-c2cccc(F)c2)cc1F |
| 2.48 mL/min/g | COc1ccc(-c2c(S(=O)(=O)c3cccc(F)c3)cnc3c(F)cccc23)cc1 |
| 8.78 mL/min/g | COc1cccc(-c2c(S(=O)(=O)c3ccc(C)c(C)c3)cnc3cc(F)ccc23)c1 |
| 2.6 mL/min/g | COc1cccc(-c2c(S(=O)(=O)c3cccc(F)c3)cnc3c(F)cccc23)c1 |
| 0.38 mL/min/g | O=S(=O)(c1ccc(F)c(F)c1)c1cnc2cc(F)ccc2c1-c1cccc(Cl)c1 |
| 2.11 mL/min/g | COc1ccc(-c2c(S(=O)(=O)c3cc(Cl)cc(Cl)c3)cnc3c(F)cccc23)cc1 |
| 1.1 mL/min/g | COc1ccc(-c2c(S(=O)(=O)c3ccc(F)c(F)c3)cnc3cc(F)ccc23)cc1 |
| 2.08 mL/min/g | COc1ccc(S(=O)(=O)c2cnc3cc(F)ccc3c2-c2cccc(F)c2)cc1Cl |
| 1.08 mL/min/g | O=S(=O)(c1cc(Cl)cc(Cl)c1)c1cnc2c(F)cccc2c1-c1cccc(F)c1 |
| 2.76 mL/min/g | COc1cccc(-c2c(S(=O)(=O)c3cc(F)cc(F)c3)cnc3c(F)cccc23)c1 |
| 1.71 mL/min/g | COc1cccc(-c2c(S(=O)(=O)c3ccc(OC)c(Cl)c3)cnc3cc(F)ccc23)c1 |
| 1.11 mL/min/g | N#Cc1cccc(S(=O)(=O)c2cnc3c(F)cccc3c2-c2cccc(Cl)c2)c1 |
| 0.19 mL/min/g | O=S(=O)(c1ccc(F)c(Cl)c1)c1cnc2c(F)cccc2c1-c1ccc(F)cc1 |
| 0.78 mL/min/g | O=S(=O)(c1cc(Cl)cc(Cl)c1)c1cnc2c(F)cccc2c1-c1ccc(Cl)cc1 |
| 4.01 mL/min/g | Cc1ccc(S(=O)(=O)c2cnc3cc(F)ccc3c2-c2cccc(Cl)c2)cc1C |
| 2.23 mL/min/g | COc1cccc(-c2c(S(=O)(=O)c3ccc(F)cc3)cnc3c(F)cccc23)c1 |
| 0.95 mL/min/g | O=S(=O)(c1ccc(F)cc1)c1cnc2cc(F)ccc2c1-c1cccc(F)c1 |
| 0.92 mL/min/g | COc1ccc(-c2c(S(=O)(=O)c3cccc(C#N)c3)cnc3cc(F)ccc23)cc1 |
| 1.71 mL/min/g | COc1ccc(S(=O)(=O)c2cnc3cc(F)ccc3c2-c2ccc(F)cc2)cc1 |
| 1.39 mL/min/g | O=S(=O)(c1ccc(F)c(F)c1)c1cnc2c(F)cccc2c1-c1ccccc1F |

| CLint | SMILES |
| --- | --- |
| 1.77 mL/min/g | COc1ccc(-c2c(S(=O)(=O)c3ccc(F)cc3)cnc3cc(F)ccc23)cc1 |
| 0.78 mL/min/g | O=S(=O)(c1ccc(F)c(F)c1)c1cnc2c(F)cccc2c1-c1ccc(F)cc1 |
| 7.88 mL/min/g | Cc1ccc(S(=O)(=O)c2cnc3cc(F)ccc3c2-c2ccc(Cl)cc2)cc1C |
| 2.13 mL/min/g | Cc1ccc(S(=O)(=O)c2cnc3cc(F)ccc3c2-c2cccc(Cl)c2)cc1F |
| 1.21 mL/min/g | O=S(=O)(c1ccc(F)cc1)c1cnc2c(F)cccc2c1-c1cccc(Cl)c1 |
| 0.08 mL/min/g | N#Cc1cccc(S(=O)(=O)c2cnc3c(F)cccc3c2-c2ccc(Cl)cc2)c1 |
| 4.02 mL/min/g | COc1cccc(-c2c(S(=O)(=O)c3ccc(C)c(F)c3)cnc3c(F)cccc23)c1 |
| 2.75 mL/min/g | Cc1ccc(S(=O)(=O)c2cnc3c(F)cccc3c2-c2ccc(F)cc2)cc1F |
| 1.05 mL/min/g | COc1ccc(S(=O)(=O)c2cnc3c(F)cccc3c2-c2ccc(Cl)cc2)cc1 |
| 0.24 mL/min/g | O=S(=O)(c1cccc(F)c1)c1cnc2cc(F)ccc2c1-c1cccc(F)c1 |
| 0.18 mL/min/g | O=S(=O)(c1ccc(F)c(Cl)c1)c1cnc2c(F)cccc2c1-c1cccc(Cl)c1 |
| 0.6 mL/min/g | O=S(=O)(c1ccc(F)c(F)c1)c1cnc2cc(F)ccc2c1-c1cccc(F)c1 |
| 1.51 mL/min/g | COc1ccc(-c2c(S(=O)(=O)c3cc(F)cc(F)c3)cnc3cc(F)ccc23)cc1 |
| 2.75 mL/min/g | COc1ccc(S(=O)(=O)c2cnc3c(F)cccc3c2-c2cccc(Cl)c2)cc1 |
| 0.62 mL/min/g | O=S(=O)(c1cccc(F)c1)c1cnc2c(F)cccc2c1-c1ccc(Cl)cc1 |
| 0.79 mL/min/g | O=S(=O)(c1ccc(F)c(F)c1)c1cnc2cc(F)ccc2c1-c1ccccc1F |
| 1.77 mL/min/g | COc1cccc(-c2c(S(=O)(=O)c3ccc(F)c(F)c3)cnc3cc(F)ccc23)c1 |
| 1.14 mL/min/g | O=S(=O)(c1cccc(F)c1)c1cnc2c(F)cccc2c1-c1cccc(F)c1 |
| 1.18 mL/min/g | O=S(=O)(c1cc(F)cc(F)c1)c1cnc2c(F)cccc2c1-c1cccc(F)c1 |
| 0.64 mL/min/g | O=S(=O)(c1cc(F)cc(F)c1)c1cnc2c(F)cccc2c1-c1cccc(Cl)c1 |
| 2.2 mL/min/g | Cc1ccc(S(=O)(=O)c2cnc3c(F)cccc3c2-c2ccc(Cl)cc2)cc1F |
| 1.83 mL/min/g | COc1cccc(-c2c(S(=O)(=O)c3cccc(C#N)c3)cnc3cc(F)ccc23)c1 |
| 0.73 mL/min/g | O=S(=O)(c1cc(F)cc(F)c1)c1cnc2c(F)cccc2c1-c1ccc(Cl)cc1 |
| 1.28 mL/min/g | COc1ccc(S(=O)(=O)c2cnc3cc(F)ccc3c2-c2ccc(Cl)cc2)cc1 |
| 0.09 mL/min/g | O=S(=O)(c1cc(F)cc(F)c1)c1cnc2c(F)cccc2c1-c1ccccc1F |

| CLint | SMILES |
| --- | --- |
| 1.07 mL/min/g | O=S(=O)(c1ccc(F)c(Cl)c1)c1cnc2cc(F)ccc2c1-c1ccccc1F |
| 3.37 mL/min/g | Cc1ccc(S(=O)(=O)c2cnc3ccccc3c2N2CCOCC2)cc1C |
| 1.39 mL/min/g | N#Cc1cccc(S(=O)(=O)c2cnc3cc(F)ccc3c2-c2ccccc2F)c1 |
| 2.12 mL/min/g | Cc1ccc(S(=O)(=O)c2cnc3ccccc3c2-c2ccc(Cl)cc2)cc1 |
| 1.13 mL/min/g | O=S(=O)(c1ccc(F)c(F)c1)c1cnc2c(F)cccc2c1-c1cccc(Cl)c1 |
| 0.03 mL/min/g | O=S(=O)(c1cc(F)cc(F)c1)c1cnc2cc(F)ccc2c1-c1ccc(Cl)cc1 |
| 1.89 mL/min/g | COc1ccc(-c2c(S(=O)(=O)c3cccc(F)c3)cnc3cc(F)ccc23)cc1 |
| 2.97 mL/min/g | COc1cccc(S(=O)(=O)c2cnc3cc(F)ccc3c2-c2cccc(Cl)c2)c1 |
| 1.51 mL/min/g | COc1cccc(-c2c(S(=O)(=O)c3cc(Cl)cc(Cl)c3)cnc3cc(F)ccc23)c1 |
| 1.23 mL/min/g | O=S(=O)(c1ccc(F)c(Cl)c1)c1cnc2c(F)cccc2c1-c1cccc(F)c1 |
| 3.18 mL/min/g | Cc1ccc(S(=O)(=O)c2cnc3c(F)cccc3c2-c2cccc(Cl)c2)cc1F |
| 0.66 mL/min/g | O=S(=O)(c1ccc(F)c(Cl)c1)c1cnc2cc(F)ccc2c1-c1cccc(Cl)c1 |
| 2.41 mL/min/g | COc1ccc(-c2c(S(=O)(=O)c3ccc(F)cc3)cnc3c(F)cccc23)cc1 |
| 1.08 mL/min/g | COc1ccc(-c2c(S(=O)(=O)c3ccc(F)c(Cl)c3)cnc3cc(F)ccc23)cc1 |
| 2.87 mL/min/g | COc1ccc(S(=O)(=O)c2cnc3c(F)cccc3c2-c2cccc(OC)c2)cc1 |
| 1.29 mL/min/g | COc1ccc(S(=O)(=O)c2cnc3cc(F)ccc3c2-c2ccc(F)cc2)cc1Cl |
| 2.12 mL/min/g | COc1ccc(-c2c(S(=O)(=O)c3ccc(F)c(F)c3)cnc3c(F)cccc23)cc1 |
| 0.44 mL/min/g | O=S(=O)(c1cc(Cl)cc(Cl)c1)c1cnc2c(F)cccc2c1-c1ccccc1F |
| 0.01 mL/min/g | O=S(=O)(c1ccc(F)c(Cl)c1)c1cnc2c(F)cccc2c1-c1ccc(Cl)cc1 |
| 3.36 mL/min/g | COc1cccc(S(=O)(=O)c2cnc3cc(F)ccc3c2-c2cccc(F)c2)c1 |
| 0.19 mL/min/g | N#Cc1cccc(S(=O)(=O)c2cnc3c(F)cccc3c2-c2ccc(F)cc2)c1 |
| 3.27 mL/min/g | COc1ccc(-c2c(S(=O)(=O)c3ccc(C)c(F)c3)cnc3c(F)cccc23)cc1 |
| 2.94 mL/min/g | COc1ccc(S(=O)(=O)c2cnc3cc(F)ccc3c2-c2cccc(F)c2)cc1 |
| 0.41 mL/min/g | Cc1ccc(S(=O)(=O)c2cnc3cc(F)ccc3c2-c2cccc(F)c2)cc1F |
| 0.93 mL/min/g | O=S(=O)(c1cc(Cl)cc(Cl)c1)c1cnc2cc(F)ccc2c1-c1cccc(Cl)c1 |

| CLint | SMILES |
| --- | --- |
| 0.34 mL/min/g | N#Cc1cccc(S(=O)(=O)c2cnc3c(F)cccc3c2-c2cccc(F)c2)c1 |
| 0.98 mL/min/g | O=S(=O)(c1cccc(F)c1)c1cnc2cc(F)ccc2c1-c1ccc(Cl)cc1 |
| 1.28 mL/min/g | O=S(=O)(c1ccc(F)c(F)c1)c1cnc2c(F)cccc2c1-c1cccc(F)c1 |
| 1.39 mL/min/g | O=S(=O)(c1ccc(F)c(Cl)c1)c1cnc2c(F)cccc2c1-c1ccccc1F |
| 0.78 mL/min/g | N#Cc1cccc(S(=O)(=O)c2cnc3cc(F)ccc3c2-c2cccc(F)c2)c1 |
| 3.71 mL/min/g | Cc1ccc(S(=O)(=O)c2cnc3cc(F)ccc3c2-c2cccc(F)c2)cc1C |
| 1.81 mL/min/g | COc1cccc(-c2c(S(=O)(=O)c3cc(F)cc(F)c3)cnc3cc(F)ccc23)c1 |
| 1.19 mL/min/g | COc1ccc(S(=O)(=O)c2cnc3cc(F)ccc3c2-c2cccc(Cl)c2)cc1Cl |
| 2.12 mL/min/g | COc1ccc(-c2c(S(=O)(=O)c3ccc(OC)cc3)cnc3c(F)cccc23)cc1 |
| 0.56 mL/min/g | O=S(=O)(c1cccc(F)c1)c1cnc2c(F)cccc2c1-c1cccc(Cl)c1 |
| 1.18 mL/min/g | COc1ccc(-c2c(S(=O)(=O)c3ccc(OC)cc3)cnc3cc(F)ccc23)cc1 |
| 2.33 mL/min/g | Cc1ccc(S(=O)(=O)c2cnc3cc(F)ccc3c2-c2ccc(F)cc2)cc1F |
| 0.93 mL/min/g | O=S(=O)(c1cc(Cl)cc(Cl)c1)c1cnc2cc(F)ccc2c1-c1ccccc1F |
| 1 mL/min/g | COc1ccc(-c2c(S(=O)(=O)c3cc(Cl)cc(Cl)c3)cnc3cc(F)ccc23)cc1 |
| 2.31 mL/min/g | COc1cccc(-c2c(S(=O)(=O)c3cc(Cl)cc(Cl)c3)cnc3c(F)cccc23)c1 |
| 9.25 mL/min/g | Cc1ccc(S(=O)(=O)c2cnc3cc(F)ccc3c2-c2ccc(F)cc2)cc1C |
| 0.66 mL/min/g | N#Cc1cccc(S(=O)(=O)c2cnc3c(F)cccc3c2-c2ccccc2F)c1 |
| 4.13 mL/min/g | COc1ccc(-c2c(S(=O)(=O)c3ccc(C)c(C)c3)cnc3cc(F)ccc23)cc1 |
| 0.99 mL/min/g | N#Cc1cccc(S(=O)(=O)c2cnc3cc(F)ccc3c2-c2cccc(Cl)c2)c1 |
| 0.21 mL/min/g | O=S(=O)(c1cccc(F)c1)c1cnc2c(F)cccc2c1-c1ccccc1F |
| 1.56 mL/min/g | O=S(=O)(c1ccc(F)cc1)c1cnc2c(F)cccc2c1-c1cccc(F)c1 |
| 2.59 mL/min/g | COc1ccc(-c2c(S(=O)(=O)c3cc(F)cc(F)c3)cnc3c(F)cccc23)cc1 |
| 3.03 mL/min/g | COc1ccc(S(=O)(=O)c2cnc3c(F)cccc3c2-c2cccc(F)c2)cc1 |
